Laboratory results taken from ChEMBL document CHEMBL5465560, “Selectivity Literature for EUbOPEN Chemogenomic Library” (2024).

Legend:
[1] = biological target: T1, Serine/threonine-protein kinase ICK (Homo sapiens) (UniProt Q9UPZ9); test: Selectivity interaction (KinomeScan (DiscoverX)) EUB0000618a ICK; details: at 10 µM
T1 sequence (whole entry): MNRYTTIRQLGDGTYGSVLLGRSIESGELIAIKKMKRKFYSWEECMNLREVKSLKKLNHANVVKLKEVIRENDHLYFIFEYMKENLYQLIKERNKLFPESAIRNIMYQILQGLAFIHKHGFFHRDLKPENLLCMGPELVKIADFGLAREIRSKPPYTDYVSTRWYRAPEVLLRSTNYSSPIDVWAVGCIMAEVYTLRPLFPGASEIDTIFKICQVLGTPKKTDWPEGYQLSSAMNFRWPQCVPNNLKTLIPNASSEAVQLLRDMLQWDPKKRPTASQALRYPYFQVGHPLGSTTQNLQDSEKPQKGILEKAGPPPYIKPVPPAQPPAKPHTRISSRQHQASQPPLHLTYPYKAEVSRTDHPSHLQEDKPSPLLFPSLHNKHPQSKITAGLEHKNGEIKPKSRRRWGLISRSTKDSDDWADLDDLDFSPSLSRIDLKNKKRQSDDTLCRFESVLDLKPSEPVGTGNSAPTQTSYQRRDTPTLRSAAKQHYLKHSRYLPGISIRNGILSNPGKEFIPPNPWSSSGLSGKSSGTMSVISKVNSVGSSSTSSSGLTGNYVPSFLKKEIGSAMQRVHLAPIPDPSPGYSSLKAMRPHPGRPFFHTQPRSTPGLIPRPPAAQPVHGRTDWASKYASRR

[2] = biological target: T2, Dual specificity mitogen-activated protein kinase kinase 7 (Homo sapiens) (UniProt O14733); details: at 10 µM
T2 sequence (whole entry): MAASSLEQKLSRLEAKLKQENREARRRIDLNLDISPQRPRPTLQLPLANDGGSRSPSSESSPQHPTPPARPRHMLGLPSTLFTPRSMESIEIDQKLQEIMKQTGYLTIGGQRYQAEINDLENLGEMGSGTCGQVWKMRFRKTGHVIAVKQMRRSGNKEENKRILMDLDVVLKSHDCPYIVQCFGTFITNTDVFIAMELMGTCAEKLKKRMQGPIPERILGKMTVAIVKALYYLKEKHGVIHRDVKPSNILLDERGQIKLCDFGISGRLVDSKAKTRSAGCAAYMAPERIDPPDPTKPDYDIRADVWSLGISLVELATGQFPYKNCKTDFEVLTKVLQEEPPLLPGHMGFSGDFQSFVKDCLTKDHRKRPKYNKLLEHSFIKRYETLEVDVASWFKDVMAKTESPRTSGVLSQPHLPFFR

[3] = biological target: T3, Serine/threonine-protein kinase RIO3 (Homo sapiens) (UniProt O14730); test: Selectivity interaction (KinomeScan (DiscoverX)) EUB0001049a RIOK3; details: at 1 µM
T3 sequence (whole entry): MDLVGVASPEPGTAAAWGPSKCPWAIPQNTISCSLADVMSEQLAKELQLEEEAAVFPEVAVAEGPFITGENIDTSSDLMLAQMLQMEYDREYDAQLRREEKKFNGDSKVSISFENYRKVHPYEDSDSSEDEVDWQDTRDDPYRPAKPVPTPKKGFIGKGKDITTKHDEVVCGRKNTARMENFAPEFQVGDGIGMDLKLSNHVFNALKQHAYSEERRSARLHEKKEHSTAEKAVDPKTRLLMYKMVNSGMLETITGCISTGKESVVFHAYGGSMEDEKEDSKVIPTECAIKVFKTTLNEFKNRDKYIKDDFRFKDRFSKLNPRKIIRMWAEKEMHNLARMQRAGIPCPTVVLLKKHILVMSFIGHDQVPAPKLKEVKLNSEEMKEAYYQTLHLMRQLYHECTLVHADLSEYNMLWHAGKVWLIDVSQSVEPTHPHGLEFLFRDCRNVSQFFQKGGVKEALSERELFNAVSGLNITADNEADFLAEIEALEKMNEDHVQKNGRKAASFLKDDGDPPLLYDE

[4] = biological target: T4, Mitogen-activated protein kinase kinase kinase 13 (Homo sapiens) (UniProt O43283); test: Selectivity interaction (KinomeScan (DiscoverX)) EUB0001049a MAP3K13; details: at 1 µM
T4 sequence (whole entry): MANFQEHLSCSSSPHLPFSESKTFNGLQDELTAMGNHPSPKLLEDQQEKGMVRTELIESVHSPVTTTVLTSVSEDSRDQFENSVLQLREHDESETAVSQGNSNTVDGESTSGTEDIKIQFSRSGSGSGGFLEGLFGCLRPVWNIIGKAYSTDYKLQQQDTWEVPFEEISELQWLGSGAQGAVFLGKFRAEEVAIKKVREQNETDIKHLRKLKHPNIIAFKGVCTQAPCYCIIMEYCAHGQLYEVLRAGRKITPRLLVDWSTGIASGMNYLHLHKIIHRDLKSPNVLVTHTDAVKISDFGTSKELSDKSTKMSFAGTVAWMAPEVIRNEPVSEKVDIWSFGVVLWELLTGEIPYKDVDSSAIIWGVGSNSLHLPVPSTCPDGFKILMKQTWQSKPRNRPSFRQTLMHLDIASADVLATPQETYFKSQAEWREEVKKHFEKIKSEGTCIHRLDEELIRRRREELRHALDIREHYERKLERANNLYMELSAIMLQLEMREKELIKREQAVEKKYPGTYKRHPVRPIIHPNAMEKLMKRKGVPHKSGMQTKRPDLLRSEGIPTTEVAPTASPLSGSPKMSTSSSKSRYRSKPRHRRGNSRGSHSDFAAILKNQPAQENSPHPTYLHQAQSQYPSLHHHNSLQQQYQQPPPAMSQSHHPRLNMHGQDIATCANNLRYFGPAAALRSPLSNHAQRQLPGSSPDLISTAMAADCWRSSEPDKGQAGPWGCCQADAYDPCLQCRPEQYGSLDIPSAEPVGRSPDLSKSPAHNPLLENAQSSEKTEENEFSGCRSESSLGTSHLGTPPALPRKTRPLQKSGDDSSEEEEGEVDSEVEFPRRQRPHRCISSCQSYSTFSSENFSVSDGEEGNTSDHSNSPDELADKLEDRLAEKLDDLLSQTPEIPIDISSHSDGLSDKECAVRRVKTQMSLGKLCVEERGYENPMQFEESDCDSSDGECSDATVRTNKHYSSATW

[5] = biological target: Tyrosine-protein kinase receptor Tie-1 (Homo sapiens) (UniProt P35590); test: Selectivity interaction (KinomeScan (DiscoverX)) EUB0001049a TIE1; details: at 1 µM
Tyrosine-protein kinase receptor Tie-1 (Homo sapiens), sequence (P35590 whole entry): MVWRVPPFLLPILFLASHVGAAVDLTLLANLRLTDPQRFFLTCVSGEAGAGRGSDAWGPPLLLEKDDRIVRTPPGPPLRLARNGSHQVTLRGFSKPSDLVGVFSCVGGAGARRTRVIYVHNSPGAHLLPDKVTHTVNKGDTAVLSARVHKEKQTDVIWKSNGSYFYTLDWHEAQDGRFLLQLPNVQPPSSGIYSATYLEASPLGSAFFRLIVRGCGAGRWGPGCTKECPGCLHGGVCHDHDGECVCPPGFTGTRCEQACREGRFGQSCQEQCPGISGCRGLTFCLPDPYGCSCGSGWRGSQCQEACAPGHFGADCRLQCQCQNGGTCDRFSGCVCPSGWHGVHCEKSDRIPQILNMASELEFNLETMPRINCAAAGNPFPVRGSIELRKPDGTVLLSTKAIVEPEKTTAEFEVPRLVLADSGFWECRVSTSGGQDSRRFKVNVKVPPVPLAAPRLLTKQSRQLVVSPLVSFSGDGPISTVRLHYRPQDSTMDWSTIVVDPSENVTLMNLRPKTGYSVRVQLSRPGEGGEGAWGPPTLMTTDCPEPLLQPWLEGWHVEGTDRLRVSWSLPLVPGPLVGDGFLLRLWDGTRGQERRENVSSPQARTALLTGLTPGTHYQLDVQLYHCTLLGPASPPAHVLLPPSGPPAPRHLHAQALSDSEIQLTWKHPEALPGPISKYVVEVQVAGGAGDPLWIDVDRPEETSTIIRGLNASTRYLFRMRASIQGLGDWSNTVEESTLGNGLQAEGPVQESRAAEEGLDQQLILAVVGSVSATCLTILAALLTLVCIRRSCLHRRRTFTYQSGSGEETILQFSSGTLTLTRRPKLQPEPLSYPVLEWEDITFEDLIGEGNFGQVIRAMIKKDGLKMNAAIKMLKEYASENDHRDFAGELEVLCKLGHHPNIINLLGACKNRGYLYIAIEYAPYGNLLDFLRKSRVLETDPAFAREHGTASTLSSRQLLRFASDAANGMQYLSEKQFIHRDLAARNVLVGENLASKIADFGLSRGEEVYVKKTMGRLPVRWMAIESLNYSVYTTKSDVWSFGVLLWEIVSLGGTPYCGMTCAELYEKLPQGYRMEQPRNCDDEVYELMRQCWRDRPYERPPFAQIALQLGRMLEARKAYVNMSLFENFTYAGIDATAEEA

[6] = biological target: Ribosomal protein S6 kinase alpha-5 (Homo sapiens) (UniProt O75582); test: Selectivity interaction (KinomeScan (DiscoverX)) EUB0000092b RPS6KA5; details: at 10 µM
Ribosomal protein S6 kinase alpha-5 (Homo sapiens), sequence (O75582 whole entry, looked up): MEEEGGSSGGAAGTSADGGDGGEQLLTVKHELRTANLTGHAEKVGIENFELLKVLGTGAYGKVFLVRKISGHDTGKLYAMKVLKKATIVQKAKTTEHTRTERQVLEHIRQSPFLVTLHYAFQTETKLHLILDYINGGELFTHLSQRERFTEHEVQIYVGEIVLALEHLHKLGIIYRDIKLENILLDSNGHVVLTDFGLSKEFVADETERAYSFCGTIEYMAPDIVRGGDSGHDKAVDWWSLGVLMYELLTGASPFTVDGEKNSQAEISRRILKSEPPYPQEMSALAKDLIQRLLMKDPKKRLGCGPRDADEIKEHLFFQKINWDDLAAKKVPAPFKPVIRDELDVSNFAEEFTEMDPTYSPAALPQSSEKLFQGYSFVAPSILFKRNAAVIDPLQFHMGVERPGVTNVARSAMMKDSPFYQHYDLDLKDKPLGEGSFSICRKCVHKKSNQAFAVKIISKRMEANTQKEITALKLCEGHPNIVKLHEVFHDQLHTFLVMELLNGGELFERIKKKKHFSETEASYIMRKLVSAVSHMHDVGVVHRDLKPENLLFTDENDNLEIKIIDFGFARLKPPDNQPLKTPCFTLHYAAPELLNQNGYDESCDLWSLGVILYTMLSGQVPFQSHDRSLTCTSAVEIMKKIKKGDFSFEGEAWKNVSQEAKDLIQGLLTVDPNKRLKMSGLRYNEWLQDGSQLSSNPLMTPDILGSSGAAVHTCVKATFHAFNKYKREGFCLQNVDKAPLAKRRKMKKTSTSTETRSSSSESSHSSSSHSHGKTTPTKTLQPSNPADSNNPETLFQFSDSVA

[7] = biological target: RAC-alpha serine/threonine-protein kinase (Homo sapiens, UniProt P31749); test: Selectivity interaction (Kinase screening (Nanosyn)) EUB0000604a AKT1
RAC-alpha serine/threonine-protein kinase, sequence (P31749 whole entry): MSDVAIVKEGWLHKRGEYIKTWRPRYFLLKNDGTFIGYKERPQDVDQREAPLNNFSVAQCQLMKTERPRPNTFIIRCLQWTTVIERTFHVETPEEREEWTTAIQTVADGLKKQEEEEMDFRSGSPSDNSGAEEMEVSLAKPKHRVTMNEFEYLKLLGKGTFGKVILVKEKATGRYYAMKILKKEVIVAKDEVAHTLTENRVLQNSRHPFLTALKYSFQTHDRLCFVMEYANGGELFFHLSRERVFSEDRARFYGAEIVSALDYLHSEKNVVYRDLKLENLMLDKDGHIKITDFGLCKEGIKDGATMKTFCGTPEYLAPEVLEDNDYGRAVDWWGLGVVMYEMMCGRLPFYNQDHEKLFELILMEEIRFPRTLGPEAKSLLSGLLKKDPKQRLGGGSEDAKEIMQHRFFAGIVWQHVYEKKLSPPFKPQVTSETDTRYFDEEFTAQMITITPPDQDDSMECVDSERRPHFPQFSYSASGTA

Q: With `O[C@H]1CC[C@H](Nc2ncc3nc(Nc4c(F)cc(F)cc4F)n([C@H]4CCOC4)c3n2)CC1` as the compound, how does the % of control [1] read?
A: The % of control was 100%.

Q: How did the % of control [2] turn out when `Cc1cc([C@@H](C)Nc2ccccc2C(=O)O)c2nc(N3CCOCC3)cc(=O)n2c1` [AZD-6482] was run?
A: Its % of control is 90%.

Q: How did the % of control [3] turn out when `COc1cc(Nc2nc(C)cc(-c3cnn4nc(OC)ccc34)n2)cc(C(F)(F)F)c1` was run?
A: Its % of control is 86%.

Q: What about the % of control [4] of the same compound?
A: The % of control was 95%.

Q: And the % of control [5]?
A: Its % of control is 84%.

Q: `CCC(=O)N1CCN(c2ccc(-n3c(=O)ccc4cnc5ccc(-c6cnc7ccccc7c6)cc5c43)cc2C(F)(F)F)CC1` was tested. Which % of control [6] did it give?
A: Its % of control is 100%.

Q: `Cc1cnc(Nc2ccc(F)cc2Cl)nc1-c1c[nH]c(C(=O)N[C@H](CO)c2cccc(Cl)c2)c1` was tested. Which % of inhibition [7] did it give?
A: The % of inhibition was 0%.
